These results are taken from publication PMC6522510 (Nature Communications, 2019).

What all share (set-up): species or system AML cell lines (8); Primary HTS, single concentration about 10 uM, Cell Titer Glo viability; log10 luminescence, per cent inhibition relative to cycloheximide control
Holding throughout (conditions): 72 h, relative to cycloheximide control, log10 luminescence, inhibitor

Assay [1] deals with CMK.
The subject of assay [2] is MOLM-13.
In assay [3] the test system is ML-2.
Assay [4] relates to CHRF288-11.
The test system of assay [5] is CMS.
For assay [6], the system named is M07e.
Assay [7] deals with U937.
The test system of assay [8] is MV4-11.

The structures appear in SMILES notation. Like-named read-outs stand apart in the source and are kept apart here.

Turning to `Cc1cccc(Nc2ncc(-c3ccccc3)o2)c1` [SJ000573031-1, U21834/25/1], the CMK %inh in assay [1] was determined as 4.152%. Moreover, the MOLM-13 %inh in assay [2] came out at 78.79%. The ML-2 %inh in assay [3] was 2.781%. Also, the CHRF288-11 %inh in assay [4] was found to be 1.444%. The CMS %inh in assay [5] worked out at 1.47%. The M07e %inh in assay [6] is on record as 2.356%. In addition, the U937 %inh in assay [7] was 0.1537%. Also, the MV4-11 %inh in assay [8] is given as 58.38%.
Take `FC(F)(F)c1cccc(Nc2nccc(-c3cnn4nc(-c5ccccc5)ccc34)n2)c1` [SJ000573250-1, U17838/151/2]: the CMK %inh in assay [1] amounted to 0.1975%. In addition, in assay [2], the MOLM-13 %inh was determined as 2.078%. Further, the ML-2 %inh in assay [3] is -0.4365%. The CHRF288-11 %inh in assay [4] is 8.085%. In assay [5], the CMS %inh was 3.035%. For the same compound, the M07e %inh in assay [6] came to 2.996%. In assay [7], the U937 %inh is listed as -0.9941%. For the same compound, in assay [8], the MV4-11 %inh amounted to 3.227%.
On to `O=C1NC(=N[C@@H]2C[C@H]2c2ccccc2)S/C1=C\c1ccc2ncccc2c1` [SJ000581135-1], for which, in assay [1], the CMK %inh is -0.2461%. Besides, the MOLM-13 %inh in assay [2] is on record as 1.012%. The ML-2 %inh in assay [3] came to 0.9867%. Also, in assay [4], the CHRF288-11 %inh was 1.296%. Also, the CMS %inh in assay [5] was -0.3906%. For the same compound, the M07e %inh in assay [6] was found to be 3.343%. Besides, in assay [7], the U937 %inh was 9.436%. The MV4-11 %inh in assay [8] amounted to 2.985%.
Take `COc1ccc(-c2nn3ncccc3c2-c2ccnc(Nc3cccc(C(F)(F)F)c3)n2)cc1` [SJ000573079-1, U17838/180/3]: the CMK %inh in assay [1] amounted to 4.001%. Further, the MOLM-13 %inh in assay [2] stood at 3.38%. The ML-2 %inh in assay [3] is reported as -0.6403%. For the same compound, the CHRF288-11 %inh in assay [4] is reported as 5.707%. The CMS %inh in assay [5] was 13.73%. Further, in assay [6], the M07e %inh was 14.72%. The U937 %inh in assay [7] worked out at 2.119%. The MV4-11 %inh in assay [8] turned out to be 8.211%.
With `COc1cccc(-n2nc(C)c3c(N/N=C(\C)c4ccncc4)ncnc32)c1` [SJ000573178-1, U17747/163/1], the CMK %inh in assay [1] is reported as -0.9949%. The MOLM-13 %inh in assay [2] is -1.351%. Moreover, in assay [3], the ML-2 %inh is given as -1.055%. Also, in assay [4], the CHRF288-11 %inh was -4.056%. The CMS %inh in assay [5] stood at 0.07052%. Also, the M07e %inh in assay [6] is reported as -1.478%. The U937 %inh in assay [7] is -2.387%. Moreover, in assay [8], the MV4-11 %inh was -0.7035%.
Regarding `C=CC[N+]1([C@H]2C[C@H]3[C@@H]4CC[C@H]5C[C@H](O)[C@@H](N6CCOCC6)C[C@]5(C)[C@H]4CC[C@]3(C)[C@H]2OC(C)=O)CCCC1` [SJ000556732-1, ROCURONIUM BROMIDE], the CMK %inh in assay [1] was -9.307%. In addition, the MOLM-13 %inh in assay [2] is -4.64%. Moreover, in assay [3], the ML-2 %inh is listed as -0.2233%. For the same compound, in assay [4], the CHRF288-11 %inh is -4.633%. Also, in assay [5], the CMS %inh was -2.237%. In addition, the M07e %inh in assay [6] was -1.372%. Further, in assay [7], the U937 %inh is -2.855%. Moreover, in assay [8], the MV4-11 %inh is 0.4653%.
In the case of `C=CCNC(=O)c1cc([N+](=O)[O-])cc2c(=O)[nH]c(Nc3ccc(Cl)c(Cl)c3)nc12` [SJ000772422-1, AZ 10417808], in assay [1], the CMK %inh was -3.629%. Besides, in assay [2], the MOLM-13 %inh is reported as 0.5205%. In addition, the ML-2 %inh in assay [3] came to 0.702%. The CHRF288-11 %inh in assay [4] was 0.7864%. Further, in assay [5], the CMS %inh was found to be 0.1501%. For the same compound, the M07e %inh in assay [6] was 3.044%. The U937 %inh in assay [7] was -1.321%. The MV4-11 %inh in assay [8] came out at 3.564%.
Consider `C[C@]12C=CC(=O)C=C1CC[C@@H]1[C@@H]2C(=O)C[C@@]2(C)[C@H]1CC[C@]2(O)C(=O)CO` [SJ000285543-4, PREDNISONE], for which the CMK %inh in assay [1] (CMK %inh, 10 µM) is -3.067%. Also, the MOLM-13 %inh in assay [2] (MOLM-13 %inh, 10 µM) is given as -1.419%. In addition, the ML-2 %inh in assay [3] (ML-2 %inh, 10 µM) is -1.792%. Besides, in assay [4] (CHRF288-11 %inh, 10 µM), the CHRF288-11 %inh was 3.346%. For the same compound, the CMS %inh in assay [5] (CMS %inh, 10 µM) was -1.906%. The M07e %inh in assay [6] (M07e %inh, 10 µM) is given as -1.735%. Also, in assay [7] (U937 %inh, 10 µM), the U937 %inh is given as -1.889%. For the same compound, in assay [8] (MV4-11 %inh, 10 µM), the MV4-11 %inh is on record as -0.9421%.
Consider `CCOC(=O)c1c(C)[nH]c(/C=C2\C(=O)Nc3ccccc32)c1C` [SJ000773165-1, VEGFR2 KINASE INHIBITOR I], for which the CMK %inh in assay [1] turned out to be 1.896%. Also, the MOLM-13 %inh in assay [2] is listed as 14.97%. Moreover, the ML-2 %inh in assay [3] is recorded as -1.978%. In assay [4], the CHRF288-11 %inh was found to be 3.3%. Also, in assay [5], the CMS %inh is -2.877%. The M07e %inh in assay [6] is -1.094%. Besides, the U937 %inh in assay [7] is recorded as -1.551%. Moreover, the MV4-11 %inh in assay [8] stood at 4.438%.
With `CNC(=O)[C@H](Cc1c[nH]c2ccccc12)NC(=O)[C@@H](CC(=O)NO)CC(C)C` [SJ000755078-1, GM 6001 | ILOMASTAT (GM6001, GALARDIN)], the CMK %inh in assay [1] is -1.76%. In addition, the MOLM-13 %inh in assay [2] is reported as 3.013%. Also, the ML-2 %inh in assay [3] was -0.512%. The CHRF288-11 %inh in assay [4] is recorded as 9.385%. Besides, the CMS %inh in assay [5] was -0.9664%. Also, in assay [6], the M07e %inh is -0.3296%. In addition, the U937 %inh in assay [7] is 9.818%. Further, the MV4-11 %inh in assay [8] is on record as 1.237%.
As to `CN1CCC(C(=O)Nc2n[nH]c3nc(-c4ccc(O)cc4)c(Br)cc23)CC1` [SJ000573086-1, RW100084-040A1 | AN100368-077A1], in assay [1] (CMK %inh, 10 µM), the CMK %inh worked out at 70.81%. In assay [2] (MOLM-13 %inh, 10 µM), the MOLM-13 %inh is 112.8%. In addition, in assay [3] (ML-2 %inh, 10 µM), the ML-2 %inh was 63.69%. Further, in assay [4] (CHRF288-11 %inh, 10 µM), the CHRF288-11 %inh was found to be 69.8%. Besides, in assay [5] (CMS %inh, 10 µM), the CMS %inh is 85%. Moreover, the M07e %inh in assay [6] (M07e %inh, 10 µM) stood at 88.26%. In addition, the U937 %inh in assay [7] (U937 %inh, 10 µM) was 86.11%. Moreover, the MV4-11 %inh in assay [8] (MV4-11 %inh, 10 µM) is listed as 81.01%.
`OCCn1c(-c2ccncc2)c(-c2ccc(F)cc2)c2ncccc21` [SJ000581130-1]: the CMK %inh in assay [1] worked out at 5.975%. Besides, in assay [2], the MOLM-13 %inh was 0.6818%. In addition, the ML-2 %inh in assay [3] is -0.1929%. Also, the CHRF288-11 %inh in assay [4] is listed as 7.224%. Moreover, the CMS %inh in assay [5] is 3.754%. In addition, the M07e %inh in assay [6] was determined as 6.21%. For the same compound, the U937 %inh in assay [7] turned out to be 1.305%. Moreover, in assay [8], the MV4-11 %inh is listed as 4.176%.
In the case of `COc1cc[nH]c1/C=C1\C(=O)Nc2ccc(F)c(C#CC3(O)CCNCC3)c21` [SJ000581013-1], in assay [1], the CMK %inh is given as 93.46%. Also, in assay [2], the MOLM-13 %inh turned out to be 105.4%. In assay [3], the ML-2 %inh amounted to 57.56%. In addition, the CHRF288-11 %inh in assay [4] is 71.86%. Besides, the CMS %inh in assay [5] is given as 92.23%. Also, the M07e %inh in assay [6] is recorded as 109.1%. Further, the U937 %inh in assay [7] amounted to 80.6%. The MV4-11 %inh in assay [8] worked out at 81.96%.
Take `CCn1c(-c2nonc2N)nc2ccncc21` [SJ000573203-1, JS100940-045A1]: the CMK %inh in assay [1] is reported as 40.02%. In addition, the MOLM-13 %inh in assay [2] is listed as 0.1335%. The ML-2 %inh in assay [3] is given as 2.303%. Also, the CHRF288-11 %inh in assay [4] worked out at 39.85%. Besides, the CMS %inh in assay [5] was -0.06255%. The M07e %inh in assay [6] is -2.227%. Further, the U937 %inh in assay [7] stood at 1.08%. Further, the MV4-11 %inh in assay [8] is -1.945%.
Take `CCC[C@@H]1CC2=CC(=O)CC[C@]2(C)[C@H]2CC[C@@]3(C)[C@@H](CC[C@@]34CCC(=O)O4)[C@H]12` [SJ000546508-1, RU 26752]: the CMK %inh in assay [1] was -5.773%. In assay [2], the MOLM-13 %inh is on record as -0.802%. Also, the ML-2 %inh in assay [3] worked out at 2.095%. Besides, the CHRF288-11 %inh in assay [4] is -0.7374%. The CMS %inh in assay [5] came out at 0.3867%. For the same compound, the M07e %inh in assay [6] came out at 0.5508%. Also, the U937 %inh in assay [7] is reported as -0.3202%. Besides, the MV4-11 %inh in assay [8] is given as 1.882%.
Regarding `CCCS(=O)(=O)Nc1ccc(F)c(C(=O)c2c[nH]c3ncc(-c4ccc(Cl)cc4)cc23)c1F` [SJ000574274-1, VEMURAFENIB | PLX-4032 | R-7204 | RG-7204 | RO-5185426 | PLX4032 | RG7204 | VEMURAFENIB (PLX4032, RG7204)], the CMK %inh in assay [1] came to 1.427%. The MOLM-13 %inh in assay [2] is given as -2.361%. In assay [3], the ML-2 %inh is -0.6517%. In assay [4], the CHRF288-11 %inh is given as -2.721%. Moreover, the CMS %inh in assay [5] amounted to 1.477%. Further, the M07e %inh in assay [6] is given as -0.8043%. Moreover, in assay [7], the U937 %inh was -0.9604%. For the same compound, the MV4-11 %inh in assay [8] is recorded as -4.805%.
